Structures are written as SMILES. ≈ marks a conversion by molar mass, not a printed value.

The subject of this test is P388. The experiment in a line: Cytotoxicity against mouse P388 cells. Type of test: functional. The note with it: read-out: ED50 (the source's name).

Consider `CC[C@H](/C=C/[C@@H](C)[C@H]1CC[C@H]2[C@@H]3[C@@H](O)C=C4C[C@@H](O)CC[C@]4(C)[C@H]3CC[C@]12C)C(C)C`, for which the EC50 came to 0.1 µg/mL (≈ 0.233 µM).
The value for `CC[C@H](CC[C@@H](C)[C@H]1CC[C@H]2[C@@H]3[C@@H](O)C=C4C[C@@H](O)CC[C@]4(C)[C@H]3CC[C@]12C)C(C)C` was 0.2 µg/mL (≈ 0.464 µM).

These data come from ChEMBL document CHEMBL1149006, “Isolation and characterization of a new triterpene from Iris missouriensis” (1986).
